Experimental data taken from US9725448B2, “Neprilysin inhibitors” (THERAVANCE BIOPHARMA R&D IP, LLC, priority 2011, dated 2017).

Biological target: T1, human NEP (Homo sapiens, UniProt P08473)
T1 construct: purchased R&D Systems, Minneapolis, Minn; 1182-ZN
Test: In vitro enzyme inhibition assay at human NEP (fluorogenic peptide substrate)
Type: biochemical
Conditions: pKi values at human NEP (recombinant), given as ranges
Method: The inhibitory activities of compounds at human and rat neprilysin (EC 3.4.24.11; NEP) and human angiotensin converting enzyme (ACE) were determined using in vitro assays as described below.
Recombinant human NEP and recombinant human ACE were obtained commercially (R&D Systems, Minneapolis, Minn., catalog numbers 1182-ZN and 929-ZN, respectively). The fluorogenic peptide substrate Mca-D-Arg-Arg-Leu-Dap-(Dnp)-OH (Medeiros et al. (1997) Braz. J. Med. Biol. Res. 30:1157-62; Anaspec, San Jose, Calif.) and Abz-Phe-Arg-Lys(Dnp)-Pro-OH (Araujo et al. (2000) Biochemistry 39:8519-8525; Bachem, Torrance, Calif.) were used in the NEP and ACE assays respectively.
The assays were performed in 384-well white opaque plates at 37° C. using the fluorogenic peptide substrates at a concentration of 10 μM in Assay Buffer (NEP: 50 mM HEPES, pH 7.5, 100 mM NaCl, 0.01% polyethylene glycol sorbitan monolaurate (Tween-20), […]; ACE: 50 mM HEPES, pH 7.5, 100 mM NaCl, 0.01% Tween-20, 1 μM ZnSO4).
Test compounds were assayed over the range of concentrations from 10 μM to 20 pM. Test compounds were added to the enzymes and incubated for 30 minute at 37° C. prior to initiating the reaction by the addition of substrate. Reactions were terminated after 20 minutes of incubation at 37° C. by the addition of glacial acetic acid to a final concentration of 3.6% (v/v).
Plates were read on a fluorometer with excitation and emission wavelengths set to 320 nm and 405 nm, respectively. Inhibition constants were obtained by nonlinear regression of the data using the equation (GraphPad Software, Inc., San Diego, Calif.): ν=ν0/[1+(I/K′)] where ν is the reaction rate, ν0 is the uninhibited reaction rate, I is the inhibitor concentration and K′ is the apparent inhibition constant.
Compounds of the invention were tested in this assay and found to have pKi values at human NEP as follows.

T1 sequence (P08473 52-750 limits assumed): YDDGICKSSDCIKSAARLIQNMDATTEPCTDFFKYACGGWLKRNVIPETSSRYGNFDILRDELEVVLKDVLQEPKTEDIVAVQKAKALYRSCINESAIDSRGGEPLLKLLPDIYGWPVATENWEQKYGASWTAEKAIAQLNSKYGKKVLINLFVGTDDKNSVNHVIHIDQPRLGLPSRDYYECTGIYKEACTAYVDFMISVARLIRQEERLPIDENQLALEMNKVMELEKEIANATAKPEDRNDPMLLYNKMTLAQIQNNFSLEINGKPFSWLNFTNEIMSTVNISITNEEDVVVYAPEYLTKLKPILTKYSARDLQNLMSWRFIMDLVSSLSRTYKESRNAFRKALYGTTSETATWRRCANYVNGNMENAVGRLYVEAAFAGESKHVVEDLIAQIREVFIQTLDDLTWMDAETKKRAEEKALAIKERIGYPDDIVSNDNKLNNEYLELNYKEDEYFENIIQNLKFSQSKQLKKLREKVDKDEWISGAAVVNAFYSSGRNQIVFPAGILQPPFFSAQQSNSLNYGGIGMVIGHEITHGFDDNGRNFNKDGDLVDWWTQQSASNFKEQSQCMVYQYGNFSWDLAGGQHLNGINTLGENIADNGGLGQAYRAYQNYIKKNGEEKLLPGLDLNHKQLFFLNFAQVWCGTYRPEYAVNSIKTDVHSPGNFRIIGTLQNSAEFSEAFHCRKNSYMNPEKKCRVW

Compound | Ki [nM]
COc1cc(C(=O)NN(Cc2ccc(-c3ccccc3)cc2)CC(C)(O)C(=O)O)on1 (stereo not shown) [Example 4-3, 3-[N-Biphenyl-4-ylmethyl-N′-(3-methoxy-isoxazole-5-carbonyl)-hydrazino]-2-hydroxy-2-methyl-propionic acid] | 126 to 1000
C[C@](O)(C[C@@H](Cc1ccc(-c2ccccc2)cc1)NC(=O)c1cnc2nn[nH]c2c1)C(=O)O [Example 2-6, (2S,4R)-5-Biphenyl-4-yl-2-hydroxy-2-methyl-4-[(1H-[1,2,3]triazolo[4,5-b]pyridine-6-carbonyl)-amino]-pentanoic acid] | 12.6 to 100
CC(O)(CN(Cc1ccc(-c2ccccc2)cc1)NC(=O)c1cc(C(=O)N2CCCC2)n[nH]1)C(=O)O (stereo not shown) [Example 4-8, 3-{N-Biphenyl-4-ylmethyl-N′-[5-(pyrrolidine-1-carbonyl)-2H-pyrazole-3-carbonyl]-hydrazino}-2-hydroxy-2-methyl-propionic acid] | 12.6 to 100
C[C@](O)(C[C@@H](Cc1ccc(-c2ccccc2)cc1)NC(=O)c1cc(C(=O)O)[nH]n1)C(=O)O [Example 2-11, 5-((1R,3S)-1-Biphenyl-4-ylmethyl-3-carboxy-3-hydroxy-butylcarbamoyl)-2H-pyrazole-3-carboxylic acid] | 1.26 to 10
CC(O)(C[C@@H](Cc1ccc(-c2ccccc2)cc1)NC(=O)c1cc(O)n[nH]1)C(=O)O (stereo partly drawn) [Example 2-12, (R)-5-Biphenyl-4-yl-2-hydroxy-4-[(5-hydroxy-2H-pyrazole-3-carbonyl)-amino]-2-methyl-pentanoic acid] | 1.26 to 10
C[C@@](O)(C[C@@H](Cc1ccc(-c2ccccc2)cc1)NC(=O)c1cnc(O)nc1)C(=O)O [Example 2-9, (2R,4R)-5-Biphenyl-4-yl-2-hydroxy-4-[(2-hydroxy-pyrimidine-5-carbonyl)-amino]-2-methyl-pentanoic acid] | ≤ 1
C[C@](O)(C[C@@H](Cc1ccc(-c2ccccc2)cc1)NC(=O)c1cnc(O)nc1)C(=O)O [Example 2-10, (2S,4R)-5-Biphenyl-4-yl-2-hydroxy-4-[(2-hydroxy-pyrimidine-5-carbonyl)-amino]-2-methyl-pentanoic acid] | 1.26 to 10
CC(O)(CN(Cc1ccc(-c2ccccc2)cc1)NC(=O)c1nnc(Cl)[nH]1)C(=O)O (stereo not shown) [Example 4-2, 3-[N-Biphenyl-4-ylmethyl-N′-(5-chloro-4H-[1,2,4]triazole-3-carbonyl)-hydrazino]-2-hydroxy-2-methyl-propionic acid] | 126 to 1000
CC(O)(C[C@@H](Cc1ccc(-c2ccccc2)cc1)NC(=O)c1n[nH]c(Cl)n1)C(=O)O (stereo partly drawn) [Example 2-3, (R)-5-Biphenyl-4-yl-4-[(5-chloro-2H-[1,2,4]triazole-3-carbonyl)-amino]-2-hydroxy-2-methyl-pentanoic acid] | 12.6 to 100

The next lines start with the values.

Ki [nM] | Compound
1.26 to 10 | CC(C)(C[C@@H](Cc1ccc(-c2ccccc2)cc1)NC(=O)c1cnn[nH]1)C(=O)O [Example 9-1, (R)-5-Biphenyl-4-yl-2,2-dimethyl-4-[(3H-[1,2,3]triazole-4-carbonyl)-amino]-pentanoic acid]
≤ 1 | O=C(N[C@H](Cc1ccc(-c2ccccc2)cc1)CC1(C(=O)O)CC1)c1cc(C(=O)O)[nH]n1 [Example 10A, 5-[(R)-2-Biphenyl-4-yl-1-(1-carboxy-cyclopropylmethyl)-ethylcarbamoyl]-2H-pyrazole-3-carboxylic acid]
12.6 to 100 | CC(C)(C[C@@H](Cc1ccc(-c2ccccc2)cc1)NC(=O)c1cc(C(=O)N2CCOCC2)n[nH]1)C(=O)O [Example 9-8, (R)-5-Biphenyl-4-yl-2,2-dimethyl-4-{[5-(morpholine-4-carbonyl)-2H-pyrazole-3-carbonyl]-amino}-pentanoic acid]
12.6 to 100 | CN(C)C(=O)c1cc(C(=O)NN(Cc2ccc(-c3cccc(Cl)c3)cc2)C[C@@](C)(O)C(=O)O)[nH]n1 [Example 7-9, (R)-3-[N-(3′-Chlorobiphenyl-4-ylmethyl)-N′-(5-dimethylcarbamoyl-2H-pyrazole-3-carbonyl)-hydrazino]-2-hydroxy-2-methyl-propionic acid]
12.6 to 100 | O=C(N[C@H](Cc1ccc(-c2ccccc2)cc1)CC1(C(=O)O)CC1)c1cnn[nH]1 [Example 11-1, 1-{(R)-3-Biphenyl-4-yl-2-[(3H-[1,2,3]triazole-4-carbonyl)-amino]-propyl}-cyclopropanecarboxylic acid]
1.26 to 10 | C[C@@](O)(CN(Cc1ccc(-c2cc(Cl)ccc2F)cc1)NC(=O)c1nnn[nH]1)C(=O)O [Example 7-23, (R)-3-[N-(5′-Chloro-2′-fluorobiphenyl-4-ylmethyl)-N′-(1H-tetrazole-5-carbonyl)-hydrazino]-2-hydroxy-2-methyl-propionic acid]
1.26 to 10 | C[C@@](O)(CN(Cc1ccc(-c2ccccc2O)cc1)NC(=O)c1cc(O)no1)C(=O)O [Example 7-16, (R)-2-Hydroxy-3-[N-(2′-hydroxy-biphenyl-4-ylmethyl)-N′-(3-hydroxy-isoxazole-5-carbonyl)-hydrazino]-2-methyl-propionic acid]
≤ 1 | C[C@@](O)(CN(Cc1ccc(-c2cccc(Cl)c2)cc1)NC(=O)c1cc(O)no1)C(=O)O [Example 7-11, (R)-3-[N-(3′-Chlorobiphenyl-4-ylmethyl)-N′-(3-hydroxy-isoxazole-5-carbonyl)-hydrazino]-2-hydroxy-2-methyl-propionic acid]
1.26 to 10 | CC(C)(C[C@@H](Cc1ccc(-c2ccccc2)cc1)NC(=O)c1cc(C(=O)N2CCC[C@H]2C(=O)O)n[nH]1)C(=O)O [Example 9-11, (S)-1-[5-((R)-1-Biphenyl-4-ylmethyl-3-carboxy-3-methyl-butylcarbamoyl)-1H-pyrazole-3-carbonyl]-pyrrolidine-2-carboxylic acid]
12.6 to 100 | CC(C)(C[C@@H](Cc1ccc(-c2ccccc2)cc1)NC(=O)c1cc(C(=O)N2CCC(O)C2)n[nH]1)C(=O)O (stereo partly drawn) [Example 9-9, (R)-5-Biphenyl-4-yl-4-{[5-(3-hydroxy-pyrrolidine-1-carbonyl)-2H-pyrazole-3-carbonyl]-amino}-2,2-dimethyl-pentanoic acid]
12.6 to 100 | C[C@@](O)(CN(Cc1ccc(-c2cc(Cl)cc(Cl)c2)cc1)NC(=O)c1cc(O)no1)C(=O)O [Example 7-13, (R)-3-[N-(3′,5′-Dichlorobiphenyl-4-ylmethyl)-N′-(3-hydroxy-isoxazole-5-carbonyl)-hydrazino]-2-hydroxy-2-methyl-propionic acid]
12.6 to 100 | C[C@@](O)(CN(Cc1ccc(-c2cccc(Cl)c2)cc1)NC(=O)c1cc(-c2cnccn2)n[nH]1)C(=O)O [Example 7-8, (R)-3-[N-(3′-Chlorobiphenyl-4-ylmethyl)-N′-(5-pyrazin-2-yl-2H-pyrazole-3-carbonyl)-hydrazino]-2-hydroxy-2-methyl-propionic acid]
1.26 to 10 | C[C@@](O)(CN(Cc1ccc(-c2cccc(Cl)c2)cc1)NC(=O)c1cnc(O)nc1)C(=O)O [Example 7-25, (R)-3-[N-(3′-Chlorobiphenyl-4-ylmethyl)-N′-(2-hydroxy-pyrimidine-5-carbonyl)-hydrazino]-2-hydroxy-2-methyl-propionic acid]
12.6 to 100 | CC(C)(C[C@@H](Cc1ccc(-c2ccccc2)cc1)NC(=O)c1ncn[nH]1)C(=O)O [Example 9-4, (R)-5-Biphenyl-4-yl-2,2-dimethyl-4-[(2H-[1,2,4]triazole-3-carbonyl)-amino]-pentanoic acid]
1.26 to 10 | Cc1ccc(Cl)cc1-c1ccc(CN(C[C@@](C)(O)C(=O)O)NC(=O)c2nnn[nH]2)cc1 [Example 7-24, (R)-3-[N-(5′-Chloro-2′-methyl-biphenyl-4-ylmethyl)-N′-(1H-tetrazole-5-carbonyl)-hydrazino]-2-hydroxy-2-methyl-propionic acid]
≤ 1 | O=C(N[C@H](Cc1ccc(-c2ccccc2)cc1)CC1(C(=O)O)CC1)c1cc(O)no1 [Example 11-5, 1-{(R)-3-Biphenyl-4-yl-2-[(3-hydroxy-isoxazole-5-carbonyl)-amino]-propyl}-cyclopropanecarboxylic acid]
1.26 to 10 | O=C(N[C@H](Cc1ccc(-c2ccccc2)cc1)CC1(C(=O)O)CC1)c1cnc(O)nc1 [Example 11-8, 1-{(R)-3-Biphenyl-4-yl-2-[(2-hydroxy-pyrimidine-5-carbonyl)-amino]-propyl}-cyclopropanecarboxylic acid]
1.26 to 10 | CC(C)(C[C@@H](Cc1ccc(-c2ccccc2)cc1)NC(=O)c1nc(O)n[nH]1)C(=O)O [Example 9-3, (R)-5-Biphenyl-4-yl-4-[(5-hydroxy-2H-[1,2,4]triazole-3-carbonyl)-amino]-2,2-dimethyl-pentanoic acid]
12.6 to 100 | C[C@@](O)(CN(Cc1ccc(-c2ccccc2Cl)cc1)NC(=O)c1cc(O)no1)C(=O)O [Example 7-15, (R)-3-[N-(2′-Chlorobiphenyl-4-ylmethyl)-N′-(3-hydroxy-isoxazole-5-carbonyl)-hydrazino]-2-hydroxy-2-methyl-propionic acid]
